Consider 32 molecules from the SangsterLogP compilation.

This data set is described as follows: method code SF-AS, from DOI: 10.1016/0045-6535(94)00381-4.
As for `Cc1ccc(S(=O)(=O)C2(C(=O)OC(C)C)CCCCC2)cc1`, the logP (in general, the decadic logarithm of the partition coefficient of the neutral form, usually between octanol and water) was found to be 3.21.
Under `CC(C)OC(=O)CS(=O)(=O)c1ccc(Cl)cc1` stands 2.04; under `COC(=O)C1(S(=O)(=O)c2ccc(Br)cc2)CCC1`, 2.45; under `CC(C)OC(=O)C1(S(=O)(=O)c2ccc(Cl)cc2)CCCC1`, 3.16.
The value for `COC(=O)C1(S(=O)(=O)c2ccccc2)CCCCC1` was 2.3.
The value for `COC(=O)C1(S(=O)(=O)c2ccccc2)CCC1` was 1.63; that for `CCOC(=O)C1(S(=O)(=O)c2ccc(C)cc2)CC1` was 2.23; that for `COC(=O)C1(S(=O)(=O)c2ccc(C)cc2)CC1` was 1.77.
`CC(C)OC(=O)C1(S(=O)(=O)c2ccc(Cl)cc2)CCCCCC1` had a log partition coefficient (logP) of 3.83.
Take `COC(=O)C1(S(=O)(=O)c2ccccc2)CC1`: the log partition coefficient (logP) worked out at 1.43.
Under `CC(C)OC(=O)C1(S(=O)(=O)c2ccc(Cl)cc2)CCCCC1` stands 3.49; under `COC(=O)C1(S(=O)(=O)c2ccc(Cl)cc2)CC1`, 2.03.
Under `COC(=O)CS(=O)(=O)c1ccccc1` stands 0.93; under `COC(=O)CS(=O)(=O)c1ccc(Br)cc1`, 1.52; under `COC(=O)C1(S(=O)(=O)c2ccc([N+](=O)[O-])cc2)CC1`, 1.33.
Under `COC(=O)CS(=O)(=O)c1ccc([N+](=O)[O-])cc1Cl` stands 1.45.
Regarding `CC(C)OC(=O)C1(S(=O)(=O)c2ccc(Cl)cc2)CC1`, the logP stood at 2.64.
Under `COC(=O)C1(S(=O)(=O)c2ccc(C)cc2)CCCCC1` stands 2.54.
Under `COC(=O)C1(S(=O)(=O)c2ccc(Br)cc2)CC1` stands 2.32.
The molecule `CC(C)OC(=O)C1(S(=O)(=O)c2ccc([N+](=O)[O-])cc2)CCCCCC1` came in with a logP of 3.41.
Under `COC(=O)CS(=O)(=O)c1ccc(Cl)cc1` stands 1.31; under `Cc1ccc(S(=O)(=O)C2(C(=O)OC(C)C)CCCC2)cc1`, 2.88.
Under `COC(=O)C1(S(=O)(=O)c2ccc(Br)cc2)CCCC1` stands 2.73; under `COC(=O)C1(S(=O)(=O)c2ccccc2)CCCC1`, 1.98; under `CC(C)(C)OC(=O)C1(S(=O)(=O)c2ccc(Cl)cc2)CC1`, 2.68.
In the case of `CC(C)OC(=O)C1(S(=O)(=O)c2ccc([N+](=O)[O-])cc2)CCCCC1`, the lipophilicity (logP) came out at 2.84. This logP and that of the molecule before are within 0.2 log units of each other.
As to `CC(C)OC(=O)C1(S(=O)(=O)c2ccc([N+](=O)[O-])cc2)CCC1`, the log partition coefficient (logP) worked out at 2.36.
The molecule `Cc1ccc(S(=O)(=O)C2(C(=O)OC(C)C)CC2)cc1` displayed a logP of 2.52.
Regarding `COC(=O)C1(S(=O)(=O)c2ccc(Cl)cc2)CCC1`, the log partition coefficient (logP) is 2.28.
The value for `COC(=O)C1(S(=O)(=O)c2ccc(Br)cc2)CCCCC1` was 2.94; that for `CC(C)OC(=O)C1(S(=O)(=O)c2ccc([N+](=O)[O-])cc2)CC1` was 2.05; that for `CCOC(=O)C1(S(=O)(=O)c2ccc(C)cc2)CCC1` was 2.31.
